Patent publication US12459957B2, “Therapeutic compounds and methods” (GENENTECH, INC., priority 2021, dated 2025)

What was measured:
[1] = system: neutrophils (PMA-stimulated ROS); test: ROS detection assay (ROS-Glo, H2O2); format: cell-based; conditions: Neutrophil; human neutrophils, 30 min preincubation, 50 nM PMA for 30 min
Experimental: ROS were measured in neutrophils using the ROS-Glo bioluminescent assay (Promega) for the direct detection of H2O2. Neutrophils were isolated from fresh human blood using a biphasic Histopaque gradient as described here. Cells (100 uL per well) were plated in 96-well plates at a density of 200,000 cells/mL in high glucose DMEM medium. Cells were preincubated with either DMSO vehicle or compounds (10-point dilution curve starting at 2 uM with 3-fold serial dilution) for 30 min, and then stimulated with 50 nM PMA for 30 min. Luminescence, after the addition of H2O2 substrate solution for 20 min, and then ROS-Glo detection solution for 20 min, was recorded on a luminescence plate reader. The fifty percent inhibitory concentration (IC50) was determined with GraphPad Prism by plotting the assay output (RLU) versus the logarithm of the compound concentration using a non-linear sigmoid with variable slope algorithm with the default curve-fitting parameters in the Prism software.

[2] = system: neutrophils (PMA-stimulated NETosis); test: Quantification of NETosis using SYTOX Green; format: cell-based, human; conditions: for 5 uM (% NETosis): compound at 5 uM, NET-forming cells as percentage of total cells, vehicle 79.66, untreated 14.54; for IC50: Homo sapiens, Neutrophil, NETosis, SYTOX Green-stained neutrophils, PMA-stimulated
From the text: Semi-automated analysis of both phase and fluorescence images of SYTOX Green-stained neutrophils used a MATLAB algorithm. Total cells were counted by scoring phase standard deviation and radial symmetry. NETosis was classified in cells by measuring the DNA area in the fluorescence image and comparing with a select internal training set for each experiment. Unstimulated cells and PMA-stimulated, pyocyanin-inhibited cells served as negative controls. PMA-stimulated cells served as a positive control. NET-forming cells are presented as a percentage of total cells.

Row | Structure (SMILES) | IC50 [1] | 5 uM (% NETosis) [2] | IC50 [2]
1 | CC(=O)Nc1ccc2c(c1)OCc1cc(-c3ccncc3C)nn1C2 [Example 68] | 233 nM | 43.49% | –
2 | c1ccc(-c2cc3n(n2)Cc2ccc(Nc4cn[nH]c4)cc2OC3)cc1 [Example 19] | > 20000 nM | 62.75% | –
3 | N#CCNc1ccc2c(c1)OCc1cc(-c3ccccc3)nn1C2 [Example 39] | 510 nM | 52.08% | –
4 | CC(=O)Nc1ccc2c(c1)OCc1cc(-c3ccccc3F)nn1C2 [Example 55] | 46 nM | 36.33% | –
5 | CC(=O)Nc1ccc2c(c1)OCc1cc(-c3cnn(C(C)C)c3)nn1C2 [Example 108] | 285 nM | – | –
6 | CC(=O)Nc1ccc2c(c1)OCc1cc(-c3cncs3)nn1C2 [Example 54] | > 20000 nM | 37.45% | –
7 | CC(=O)Nc1ccc2c(c1)OCc1cc(-c3cnn(C(F)F)c3)nn1C2 [Example 67, N-(2-(1-(difluoromethyl)-1H-pyrazol-4-yl)-4H,10H-benzo[f]pyrazolo[5,1-c][1,4]oxazepin-7-yl)acetamide] | 192 nM | 39.88% | –
8 | c1ccc(-c2cc3n(n2)Cc2ccc(Nc4ccn[nH]4)cc2OC3)cc1 [Example 36] | 1400 nM | 46.06% | –
9 | CC(=O)Nc1ccc2c(c1)OCc1cc(-c3ccccc3)nn1C2 [Example 1, N-(2-Phenyl-4H,10H-benzo[f]pyrazolo[5,1-c][1,4]oxazepin-7-yl)acetamide] | 93 nM | 37.78% | 190 ± 30 nM
10 | CC(=O)Nc1ccc2c(c1)OCc1cc(-c3ccccc3S(C)(=O)=O)nn1C2 [Example 81] | – | 84.34% | –
11 | CC(=O)Nc1ccc2c(c1)OCc1cc(-c3ccc(CN(C)C)cc3)nn1C2 [Example 107] | – | 85.67% | –
12 | CC(=O)Nc1ccc2c(c1)OCc1cc(-c3c(F)cccc3F)nn1C2 [Example 48] | – | 42.40% | –
13 | COc1cc(-c2cc3n(n2)Cc2ccc(NC(C)=O)cc2OC3)c(OC)nn1 [Example 85] | – | 74.51% | –
14 | Cn1nccc1Nc1ccc2c(c1)OCc1cc(-c3ccccc3)nn1C2 [Example 32] | – | 76.40% | –
15 | CC(=O)Nc1ccc2c(c1)OCc1cc(-c3cn[nH]c3C)nn1C2 [Example 66] | – | 84.91% | –
16 | CC(=O)Nc1ccc2c(c1)OCc1cc(-c3cccc(S(C)(=O)=O)c3)nn1C2 [Example 80] | – | 46.95% | –

Row | Structure (SMILES) | IC50 [1] | 5 uM (% NETosis) [2] | IC50 [2]
17 | CC(=O)Nc1ccc2c(c1)OCc1cc(-c3ccc4c(c3)NC(=O)C4)nn1C2 [Example 84] | – | 42.93% | –
18 | CC(=O)Nc1ccc2c(c1)OCc1cc(-c3ccc(C(=O)N4CCOCC4)cc3)nn1C2 [Example 106] | – | 86.21% | –
19 | CC(=O)Nc1ccc2c(c1)OCc1cc(-c3ccccc3C)nn1C2 [Example 50] | – | 72.49% | –
20 | CC(=O)Nc1ccc2c(c1)OCc1cc(-c3ccc(N4CCCC4)nc3)nn1C2 [Example 79] | – | 83.33% | –
21 | CC(=O)Nc1ccc2c(c1)OCc1cc(-c3cnco3)nn1C2 [Example 52] | – | 66.03% | –
22 | Cc1cn[nH]c1Nc1ccc2c(c1)OCc1cc(-c3ccccc3)nn1C2 [Example 35] | – | 73.98% | –
23 | CC(=O)Nc1ccc2c(c1)OCc1cc(-c3cc(C)nn3C)nn1C2 [Example 58] | 2440 nM | 53.96% | –
24 | COc1cnccc1-c1cc2n(n1)Cc1ccc(NC(C)=O)cc1OC2 [Example 61] | – | 78.57% | –
25 | c1ccc(-c2cc3n(n2)Cc2ccc(-c4cn[nH]c4)cc2OC3)cc1 [Example 17] | – | 76.49% | –
26 | CC(=O)Nc1ccc2c(c1)OCc1cc(-c3ccc(S(C)(=O)=O)nc3)nn1C2 [Example 64] | – | 75.82% | –
27 | CC(=O)Nc1ccc2c(c1)OCc1cc(-c3ccc(S(=O)(=O)N4CCOCC4)cc3)nn1C2 [Example 95] | – | 85.90% | –
28 | Cn1cc(Nc2ccc3c(c2)OCc2cc(-c4ccccc4)nn2C3)c(C#N)n1 [Example 34] | – | 80.80% | –
29 | CC(=O)Nc1ccc2c(c1)OCc1cc(-c3cccc(C#CCCCO)c3)nn1C2 [Example 5, N-(2-(3-(5-hydroxypent-1-yn-1-yl)phenyl)-4H,10H-benzo[f]pyrazolo[5,1-c][1,4]oxazepin-7-yl)acetamide] | – | – | 3000 ± 1000 nM
30 | FC(F)(F)CNc1ccc2c(c1)OCc1cc(-c3ccccc3)nn1C2 [Example 37] | – | 83.25% | –
31 | Cc1cc(Nc2ccc3c(c2)OCc2cc(-c4ccccc4)nn2C3)[nH]n1 [Example 33] | > 20000 nM | 69.42% | –

Now from value to molecule, other results behind:

Row | IC50 [1] | Structure (SMILES) | 5 uM (% NETosis) [2] | IC50 [2]
32 | 3050 nM | CC(=O)Nc1ccc2c(c1)OCc1cc(-c3cnn(C)c3)nn1C2 [Example 112] | – | –
33 | 410 nM | CC(=O)Nc1ccc2c(c1)OCc1cc(-c3ccncc3)nn1C2 [Example 124] | – | –
34 | 1580 nM | CC(=O)Nc1ccc2c(c1)OCc1cc(-c3cn(C)nc3C(F)(F)F)nn1C2 [Example 110] | – | –
35 | > 20000 nM | CC(=O)Nc1ccc2c(c1)OCc1cc(-c3c[nH]nc3C3CC3)nn1C2 [Example 118] | – | –
36 | 836 nM | CC(=O)Nc1ccc2c(c1)OCc1cc(-c3cnn(C)c3C)nn1C2 [Example 121] | – | –
37 | 346 nM | CC(=O)Nc1ccc2c(c1)OCc1cc(-c3cnn(CC(C)C)c3)nn1C2 [Example 120] | – | –
38 | 714 nM | CC(=O)Nc1ccc2c(c1)OCc1cc(-c3cnn(C4COC4)c3)nn1C2 [Example 119] | – | –
39 | 480 nM | CC(=O)Nc1ccc2c(c1)OCc1cc(-c3cnn(C4CC4)c3)nn1C2 [Example 109] | – | –
40 | 1200 nM | CC(=O)Nc1ccc2c(c1)OCc1cc(-c3cnn4c3CCC4)nn1C2 [Example 122] | – | –
41 | 1360 nM | CC(=O)Nc1ccc2c(c1)OCc1cc(-c3cccnc3)nn1C2 [Example 127] | – | –
42 | 204 nM | CC(=O)Nc1ccc2c(c1)OCc1cc(-c3cnn(CF)c3)nn1C2 [Example 117] | – | –
43 | 405 nM | CCn1cc(-c2cc3n(n2)Cc2ccc(NC(C)=O)cc2OC3)cn1 [Example 114] | – | –
44 | 1460 nM | CC(=O)Nc1ccc2c(c1)OCc1cc(-c3cn(C)nc3C)nn1C2 [Example 113] | – | –
45 | 56 nM | CC(=O)Nc1ccc2c(c1)OCc1cc(-c3cnn(C(F)(F)F)c3)nn1C2 [Example 125, N-(2-(1-(trifluoromethyl)-1H-pyrazol-4-yl)-4H,10H-benzo[f]pyrazolo[5,1-c][1,4]oxazepin-7-yl)acetamide] | – | –
46 | 7750 nM | CC(=O)Nc1ccc2c(c1)OCc1cc(-c3cnn(C4CCCCO4)c3)nn1C2 (stereo not shown) [Example 115] | – | –
47 | 3100 nM | CC(=O)Nc1ccc2c(c1)OCc1cc(-c3cncnc3)nn1C2 [Example 128] | – | –
48 | 529 nM | CC(=O)Nc1ccc2c(c1)OCc1cc(-c3ccnc(C)c3)nn1C2 [Example 126] | – | –
49 | 903 nM | CC(=O)Nc1ccc2c(c1)OCc1cc(-c3ccncc3F)nn1C2 [Example 129] | – | –
50 | 2100 nM | CC(=O)Nc1ccc2c(c1)OCc1cc(-c3c[nH]nc3C(C)C)nn1C2 [Example 111] | – | –
